Measured values reported in ChEMBL document CHEMBL1141332, “Cytotoxic metabolites from an Indonesian sponge Lendenfeldia sp” (J Nat Prod, 2007).

How the values were obtained:
Assay type in all cases: functional
K562 = experiment: Cytotoxicity against human K562 cells
MOLT-4 = experiment: Cytotoxicity against human MOLT4 cells
RPMI-8226 = experiment: Cytotoxicity against human RPMI8226 cells
SR = experiment: Cytotoxicity against human SR cells
A549 = experiment: Cytotoxicity against human A549 cells
HOP-92 = experiment: Cytotoxicity against human HOP92 cells
NCI-H226 = experiment: Cytotoxicity against human NCI-H226 cells
NCI-H23 = experiment: Cytotoxicity against human NCI-H23 cells
NCI-H322M = experiment: Cytotoxicity against human NCI-H322M cells
NCI-H460 = experiment: Cytotoxicity against human NCI-H460 cells
LOX IMVI = experiment: Cytotoxicity against human LOX IMVI cells
COLO 205 = experiment: Cytotoxicity against human COLO205 cells
HCC 2998 = experiment: Cytotoxicity against human HCC2998 cells
HCT-116 = experiment: Cytotoxicity against human HCT116 cells
HCT-15 = experiment: Cytotoxicity against human HCT15 cells
HT-29 = experiment: Cytotoxicity against human HT29 cells
KM12 = experiment: Cytotoxicity against human KM12 cells
SF-268 = experiment: Cytotoxicity against human SF268 cells
SF-295 = experiment: Cytotoxicity against human SF295 cells
SF-539 = experiment: Cytotoxicity against human SF539 cells
SNB-19 = experiment: Cytotoxicity against human SNB19 cells
SNB-75 = experiment: Cytotoxicity against human SNB75 cells
U-251 = experiment: Cytotoxicity against human U251cells
[1] = read-out: Log LC50 (the source's name) (converted)

**Q.** What does the source list for `CC(=O)O[C@H]1C[C@H]2[C@@](C)(CC[C@H]3C(C)(C)CCC[C@@]32CO)[C@@H]2CC=C(C(C)=O)[C@H](C=O)[C@@]12C`?
**A.** GI50 (K562): 2190 nM; CC50 (K562; [1]): 30.2 µM; TGI (K562; read-out: Log TGI (converted)): 7.76 µM; GI50 (MOLT-4): 195 nM; CC50 (MOLT-4; [1]): 1950 nM; TGI (MOLT-4; read-out: Log TGI (converted)): 513 nM; GI50 (RPMI-8226): 427 nM; CC50 (RPMI-8226; [1]): 8.13 µM; TGI (RPMI-8226; read-out: Log TGI (converted)): 1820 nM; GI50 (SR): 288 nM; CC50 (SR; [1]): 3.72 µM; TGI (SR; read-out: Log TGI (converted)): 759 nM; GI50 (A549): 562 nM; CC50 (A549; [1]): 4.68 µM; TGI (A549; read-out: Log TGI (converted)): 1860 nM; GI50 (HOP-92): 1350 nM; CC50 (HOP-92; [1]): 5.5 µM; TGI (HOP-92; read-out: Log TGI (converted)): 2750 nM; GI50 (NCI-H226): 1380 nM; CC50 (NCI-H226; [1]): > 100 µM; TGI (NCI-H226; read-out: Log TGI (converted)): 2820 nM; GI50 (NCI-H23): 1410 nM; CC50 (NCI-H23; [1]): 5.5 µM; TGI (NCI-H23; read-out: Log TGI (converted)): 2750 nM; GI50 (NCI-H322M): 1910 nM; CC50 (NCI-H322M; [1]): 7.59 µM; TGI (NCI-H322M; read-out: Log TGI (converted)): 3.8 µM; GI50 (NCI-H460): 759 nM; CC50 (NCI-H460; [1]): 6.03 µM; TGI (NCI-H460; read-out: Log TGI (converted)): 2290 nM; GI50 (LOX IMVI): 234 nM; CC50 (LOX IMVI; [1]): 1780 nM; TGI (LOX IMVI; read-out: Log TGI (converted)): 550 nM; GI50 (COLO 205): 295 nM; CC50 (COLO 205; [1]): 4.37 µM; TGI (COLO 205; read-out: Log TGI (converted)): 1320 nM; GI50 (HCC 2998): 1000 nM; CC50 (HCC 2998; [1]): 4.79 µM; TGI (HCC 2998; read-out: Log TGI (converted)): 2190 nM; GI50 (HCT-116): 186 nM; CC50 (HCT-116; [1]): 676 nM; TGI (HCT-116; read-out: Log TGI (converted)): 355 nM; GI50 (HCT-15): 224 nM; CC50 (HCT-15; [1]): 1230 nM; TGI (HCT-15; read-out: Log TGI (converted)): 490 nM; GI50 (HT-29): 324 nM; CC50 (HT-29; [1]): 4.27 µM; TGI (HT-29; read-out: Log TGI (converted)): 1150 nM; GI50 (KM12): 501 nM; CC50 (KM12; [1]): 4.57 µM; TGI (KM12; read-out: Log TGI (converted)): 1700 nM; GI50 (SF-268): 447 nM; CC50 (SF-268; [1]): 6.17 µM; TGI (SF-268; read-out: Log TGI (converted)): 1860 nM; GI50 (SF-295): 479 nM; CC50 (SF-295; [1]): 4.27 µM; TGI (SF-295; read-out: Log TGI (converted)): 1740 nM; GI50 (SF-539): 195 nM; CC50 (SF-539; [1]): 794 nM; TGI (SF-539; read-out: Log TGI (converted)): 389 nM; GI50 (SNB-19): 1120 nM; CC50 (SNB-19; [1]): 5.75 µM; TGI (SNB-19; read-out: Log TGI (converted)): 2570 nM; GI50 (SNB-75): 355 nM; CC50 (SNB-75; [1]): 3.47 µM; TGI (SNB-75; read-out: Log TGI (converted)): 1120 nM; GI50 (U-251): 347 nM; CC50 (U-251; [1]): 3.47 µM
